Reference: patent US12448388B2, “PRMT5 inhibitors and uses thereof” (Gilead Sciences, Inc., priority 2023, dated 2025)

Target: T1, hERG (Homo sapiens, UniProt Q12809)
T1 construct: host or cells: HEK293
Experiment: hERG assay (automated patch clamp, QPatch HT)
Assay type: cell-based
Settings: human, HEK293 cells stably expressing hERG, * = accurate hERG measurement may be limited by compound solubility
Protocol: Cell lines and cell culture: The HEK293 cell line stably expressing the hERG ion channel was provided from Charles River laboratories. Cells were maintained in tissue culture incubators per Charles River Laboratories SOP. Stocks were maintained in cryogenic storage. HEK293 cells were stably transfected with hERG cDNA.
Automated Patch Clamp Procedures: In preparation for a recording session, intracellular solution was loaded into the intracellular compartments of the QPlate and cell suspension was pipetted into the extracellular compartments. After establishment of a whole-cell configuration, membrane currents were recorded using up to 48 parallel patch clamp amplifiers in the QPatch HT® system. The current records were sampled at 2000 Hz and low-pass Bessel filtered at 400 Hz.
Valid whole-cell recordings met the following criteria: • 1. Membrane resistance ≥200 MΩ. • 2. Leak current 25% channel current or subtracted.
hERG Test Procedures: Onset and block of hERG current was measured using a stimulus voltage pattern consisting of a 500 ms prepulse to −40 mV (leakage subtraction), a 2-second activating pulse to +40 mV followed by a 2-second test pulse to −40 mV. The pulse pattern was repeated continuously at 10 s intervals from a holding potential of −80 mV. Peak tail current was measured during the −40 mV test pulse. Leakage current was calculated from the current amplitude evoked by the −40 mV prepulse and subtracted from the total membrane current record.
Data Analysis: Data acquisition and analysis were performed using the QPatch Assay Software (Sophion Bioscience A/S, Denmark). Steady state was defined by the limiting constant rate of change with time (linear time dependence). The steady state before and after test article application were used to calculate the percentage of current inhibited at each concentration. Run down, a time-dependent reduction of current amplitude, may be compensated for in the QPatch Assay Software using standard system tools. Concentration-response data was fit to an equation of the following form: […]
Where [Test] is the concentration of test compound, IC50 is the concentration of the test compound producing half-maximal inhibition, N is the Hill coefficient and % Block is the percentage of current inhibited at each concentration of the test article. Nonlinear least squares fits will be solved with the Solver add-in for Excel 2000 or later (Microsoft, Redmond, WA).

T1 sequence (Q12809 whole entry): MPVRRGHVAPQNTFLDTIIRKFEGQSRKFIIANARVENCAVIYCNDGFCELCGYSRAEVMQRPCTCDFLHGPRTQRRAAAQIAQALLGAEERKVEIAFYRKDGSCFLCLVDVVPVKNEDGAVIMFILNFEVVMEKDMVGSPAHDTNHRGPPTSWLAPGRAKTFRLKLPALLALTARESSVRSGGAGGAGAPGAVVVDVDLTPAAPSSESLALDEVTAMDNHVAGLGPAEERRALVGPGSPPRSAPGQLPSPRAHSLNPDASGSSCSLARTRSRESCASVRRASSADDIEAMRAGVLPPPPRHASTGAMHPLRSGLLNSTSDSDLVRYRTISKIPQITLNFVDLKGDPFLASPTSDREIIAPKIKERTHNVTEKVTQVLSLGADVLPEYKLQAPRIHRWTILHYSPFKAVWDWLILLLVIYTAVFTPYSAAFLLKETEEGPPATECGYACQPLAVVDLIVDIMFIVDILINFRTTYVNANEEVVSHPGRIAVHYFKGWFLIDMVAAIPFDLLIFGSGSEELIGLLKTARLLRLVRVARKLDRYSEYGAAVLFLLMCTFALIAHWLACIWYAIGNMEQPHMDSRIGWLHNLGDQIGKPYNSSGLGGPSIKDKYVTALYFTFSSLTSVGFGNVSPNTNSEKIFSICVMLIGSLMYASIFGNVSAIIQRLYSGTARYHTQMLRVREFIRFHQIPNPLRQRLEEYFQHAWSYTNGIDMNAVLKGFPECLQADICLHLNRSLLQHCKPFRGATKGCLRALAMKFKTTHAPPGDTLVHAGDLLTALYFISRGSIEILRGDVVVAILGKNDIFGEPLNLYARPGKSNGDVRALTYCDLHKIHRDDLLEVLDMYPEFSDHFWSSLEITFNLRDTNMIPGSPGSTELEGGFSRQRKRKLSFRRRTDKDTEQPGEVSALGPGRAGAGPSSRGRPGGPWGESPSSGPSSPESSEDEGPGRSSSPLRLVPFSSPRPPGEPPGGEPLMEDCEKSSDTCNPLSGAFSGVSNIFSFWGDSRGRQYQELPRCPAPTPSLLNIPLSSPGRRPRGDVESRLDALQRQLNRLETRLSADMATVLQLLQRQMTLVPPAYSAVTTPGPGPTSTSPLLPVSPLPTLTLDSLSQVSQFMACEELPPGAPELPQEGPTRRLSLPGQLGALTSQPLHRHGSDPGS

With Nc1nc2cnc(C(=O)N3CC4(CC4)C[C@@H]4Oc5cc(C(F)(F)F)ccc5[C@@H]43)cc2n2cncc12 [Ff-648, (4-aminoimidazo[1,5-a]pyrido[3,4-e]pyrazin-8-yl)((4aS,9bS)-7-(trifluoromethyl)-4a,9b-dihydro-2H-spiro[benzofuro[3,2-b]pyridine-3,1′-cyclopropan]-1(4H)-yl)methanone] the IC50 was 30 µM.
